Values belong to the molecule of their own block, whether it stands above or below them.
Key:
[1] = system: Human immunodeficiency virus 1; assay: Binding affinity to HIV1 TAR RNA assessed as increase in melting temperature
[2] = system: Human immunodeficiency virus 1; assay: Antiviral activity against HIV1 infected in human MT2 cells assessed as inhibition of virus proliferation at 9 uM relative to control; format: functional; details: Human immunodeficiency virus 1, MT2
[3] = Binding affinity to r(CUG) repeat RNA (unknown origin)
[4] = system: Human immunodeficiency virus 1; assay: Antiviral activity against HIV1 assessed as reduction in viral replication by cell based assay; format: functional, organism-based
[5] = Binding affinity to HCV promoter RNA by NMR-based fragment screening assay; set-up: species or system Hepacivirus hominis
[6] = target: Rev responsive element (RRE) RNA; assay: Binding affinity to HIV1 RRE RNA assessed as reduction in binding of tritiated RRE RNA to biotinylated Rev protein by high-throughput scintillation proximity assay; format: nucleic-acid assay, Human immunodeficiency virus 1
[7] = Binding affinity to HIV1 TAR RNA; set-up: species or system Human immunodeficiency virus 1
[8] = system: Human immunodeficiency virus 1; assay: Antiviral activity against HIV1 infected in human CEM-SS cells assessed as inhibition of virus proliferation; format: functional, organism-based; details: Human immunodeficiency virus 1, CEM-SS
[9] = Binding affinity to Stem loop 3 RNA in HIV1 infected in HEK293T cells assessed as reduction in SL3-Gag interaction by measuring inhibition of RNA incorporation into virions; format: cell-based; details: Human immunodeficiency virus 1, HEK-293T
[10] = Inhibition of miR-96 hairpin RNA precursor (unknown origin)
[11] = system: Human immunodeficiency virus 1; assay: Antiviral activity against HIV1 NL4-3 infected in human MAGIC-5B cells assessed as inhibition of virus proliferation; format: functional, organism-based; details: Human immunodeficiency virus 1, NL4-3
[12] = system: Human immunodeficiency virus 1; assay: Binding affinity to HIV1 TAR RNA in HIV1 NL4-3 infected human TZM-bl cells assessed as inhibition of Tat-mediated activation relative to control; details: concentration not given here
[13] = system: Human immunodeficiency virus 1; assay: Antiviral activity against HIV1 NL4-3 infected human TZM-bl cells assessed as reduction in viral replication; format: functional, organism-based; details: Human immunodeficiency virus 1, NL4-3, TZM-bl
[14] = Binding affinity to r(CUG) repeat RNA (unknown origin) assessed as reduction in r(CUG)-MBNL1 interaction
[15] = Binding affinity to r(CGG)12 repeat RNA (unknown origin) assessed as reduction in r(CGG)12-[…] interaction

Compound: NC[C@H]1O[C@@H](O[C@H]2[C@H](O[C@@H]3O[C@H](Cn4cc(-c5ccc(-c6cn(C[C@H]7O[C@@H](O[C@@H]8[C@@H](O)[C@H](N)C[C@H](N)[C@H]8O[C@@H]8O[C@H](CN)[C@@H](O)[C@H](O)[C@H]8N)[C@H](O)[C@@H]7O[C@@H]7O[C@H](CN)[C@@H](O)[C@H](O)[C@H]7N)nn6)cc5)nn4)[C@@H](O[C@@H]4O[C@H](CN)[C@@H](O)[C@H](O)[C@H]4N)[C@H]3O)[C@@H](O)[C@H](N)C[C@@H]2N)[C@H](N)[C@@H](O)[C@@H]1O
ΔTm [1]: < 10 °C
inhibition at 9 µM [2]: 70%

Compound: Nc1cccc(-c2nc3cc(-c4ccc5[nH]c(-c6cccc(N)c6)nc5c4)ccc3[nH]2)c1
Kd [3]: 0.07 µM

Compound: COc1cc2nc(N3CCNCC3)nc(N)c2cc1OC [AMINODIMETHOXYQUINAZOLINYLPIPERAZINE]
Kd [5]: 50.5 µM

Compound: CN1CC/C(=N\c2ccc(C(=O)Nc3ccc(N=c4ccn(C)cc4)cc3)cc2)c2cc([N+](=O)[O-])ccc21
IC50 [9]: 4.5 µM

Compound: CCCN(CC(=O)N(CCC)CC(=O)N(CC(N)=O)Cc1cn(CCCNC(=O)CCCOc2c(C(C)(C)C)cc(-c3nc4cc(N5CCN(C)CC5)ccc4[nH]3)cc2C(C)(C)C)nn1)C(=O)CCCOc1cccc(-c2nc3ccc(-c4nc5ccc(N6CCN(C)CC6)cc5[nH]4)cc3[nH]2)c1
IC50 [10]: 0.05 µM

Compound: CC(=O)Nc1nc(-c2cccc(NC(=O)[C@H](N)Cc3c[nH]cn3)c2)cs1
Kd [7]: 17.5 µM
IC50 [11]: 0.41 µM

Compound: CCN[C@@H]1C[C@H](N)[C@@H](O[C@H]2OC(CN)=CC[C@H]2N)[C@H](O)[C@H]1O[C@H]1OC[C@](C)(O)[C@H](NC)[C@H]1O [NETILMICIN]
Kd [7]: 1.35 µM
inhibition [12]: 81%
IC50 [13]: 23.1 µM

Compound: Cc1c2cc[n+](CCN3CCCCC3)cc2c(C)c2c1[nH]c1ccc(O)cc12
IC50 [15]: 12 µM

Continued, in another order:

EC50 ([4]; read-out: EC50): 0.83 µM
Compound: CN(C)CCOc1cc2c(c3ccccc13)-c1ccccc1C2=O

IC50 [6]: 3.7 µM
EC50 [4]: 4.3 µM
Compound: CCN(CC)CCOc1ccc(/C(=C(/Cl)c2ccccc2)c2ccccc2)cc1 [ENCLOMIPHENE]

Kd [7]: 2.4 µM
Compound: Cc1ccc2c(N)c(C(=O)Nc3cccc(C(F)(F)F)c3)sc2n1
EC50 [8]: 28 µM

Kd [3]: 0.0052 µM
IC50 [14]: 15 µM
Compound: COc1ccc2nc3cc(Cl)ccc3c(NCCCCNc3nc(N)nc(N)n3)c2c1

Source: ChEMBL document CHEMBL4354788, “Synthetic small-molecule RNA ligands: future prospects as therapeutic agents” (Medchemcomm, 2019)
